Data as given in US12630804B2, “Blood brain barrier model” (UNIVERSITY OF LANCASHIRE, priority 2016, dated 2026).

System: blood brain barrier model
Experiment: Permeability of test/known compounds across the blood brain barrier model (TEER and fluorescence in basolateral compartment)
Assay type: in vitro ADME, human
Conditions: added to apical side; TEER and appearance in basolateral compartment, 0.5-6 h; aptamers 100 nM cy5-tagged
Procedure: The blood brain barrier model was exposed to a test/known compounds to determine permeability. The final concentration of compound introduced to the apical well was determined previously using a viability assay, and a concentration chosen that minimised toxicity to the BBB cells (<IC50). Test compounds (short DNA oligonucleotide glioma selective aptamers (100 nM) tagged with cy5 (GL21, scrambled) and lipid nanoparticles (NPs) loaded with 0.33 μg/ml docetaxel or 2.87 μg/ml curcumin tagged with rhodamine123 and transferrin ligand) were prepared in house. When the TEER values for the BBB model peaked, 3.33 μg/ml Evans Blue Dye (EBD) was added to the apical side of the BBB model to determine if the barrier formed was intact. The test and control compounds were introduced to the well and time dependent TEER measurements were taken along with fluorescent measurements of samples at time points between 0.5-6 h from the basolateral side of the well for determination of appearance of the fluorescent tagged compounds. […] The activity was calculated as % fluorescence relative to the stock concentration of the NPs and then plotted
The blood brain barrier model was exposed to a test compound and the permeability of the barrier to said test compound was measured and compared to the permeability of the blood brain barrier model to known compounds. […]

For `Cc1cc(-c2ccc(N=Nc3ccc4c(S(=O)(=O)[O-])cc(S(=O)(=O)[O-])c(N)c4c3O)c(C)c2)ccc1N=Nc1ccc2c(S(=O)(=O)[O-])cc(S(=O)(=O)[O-])c(N)c2c1O.[Na+].[Na+].[Na+].[Na+]` [Evan's blue, Evan's Blue], the “permeation across blood brain barrier model” value was “no permeability”.
